# Laboratory results as given in PMC6152667, “Synthesis and Evaluation of Antimicrobial Activity of [R4W4K]-Levofloxacin and [R4W4K]-Levofloxacin-Q Conjugates” (Molecules : A Journal of Synthetic Chemistry and Natural …, 2017).
# Where two headings read alike, the source gives them in different places. Side chains are listed from the residue outwards. Peptide text beside a SMILES is read from it. * marks the point of attachment. Levofloxacinoyl = C[C@H]1COc2c(N3CCN(C)CC3)c(F)cc3c(=O)c(C(=O)*)cn1c23; X1 = C[C@H]1COc2c(F)c(F)cc3c(=O)c(C(=O)*)cn1c23; βAla = NCCC(=O)O
# How the values were obtained:
# [1] = system: Klebsiella pneumoniae (Clinical strain (levofloxacin-susceptible)); assay: microbe, parasite or virus in culture; assay type: cell-based; conditions: for MIC: Klebsiella pneumoniae
# Experimental: (§1) The antibacterial activities of synthesized peptides were evaluated against two bacterial strains and compared to a control antibiotic and [R4W4]. Gram-negative bacteria: Klebsiella pneumoniae (Clinical strain (levofloxacin-susceptible)) and the Gram-positive bacteria: Methicillin-Resistant Staphylococcus aureus (Los Angeles County (LAC) clone) were employed for the determination of antimicrobial activities of peptides. MRSA and Klebsiella pneumoniae were inoculated into 5 mL of Mueller Hinton […] (MH) at 37 °C and shaken in an orbital shaker at 175 rpm overnight. The cultured suspension was diluted in 5 mL normal saline until it achieved 0.5 McFarland (1.5 × 10^8 bacterial cell density) turbidity. An amount of 40 μL of the McFarland solution was added to […] of MH media to make 1/150 dilution. Most peptides were dissolved in distilled water (except some of them that were dissolved in 50 mM NH4HCO3 to improve the solubility) to make 256 μg/mL solutions. Minimal inhibitory concentrations (MICs) were determined using the broth microdilution method. Briefly, 200 μL of all tested peptides and controls was added in the first column of the 96-well plate. Then, by adding 100 μL of media to the other wells and performing a 2-fold dilution in each well, serial dilution of the compound was prepared. After a series of 2-fold dilutions, 100 μL of bacterial solution was added to all wells, and then the microliter plates were incubated statically at 37 °C overnight. MICs were determined as the minimal concentration at which no visible bacterial growth was present. All experiments were conducted in triplicate.
# [2] = system: Methicillin-Resistant Staphylococcus aureus (Los Angeles County (LAC) clone); assay: microbe, parasite or virus in culture; assay type: cell-based; conditions: for MIC: Staphylococcus aureus, MRSA, read-out: MIC, Methicillin-Resistant Staphylococcus aureus (MRSA)
# Experimental: as §1
# [3] = system: Methicillin-resistant Staphylococcus aureus (MRSA); set-up: method as in PMID 25157458; conditions: previously reported; cited from earlier work
# Excerpt: The development of a new class of antibiotics to fight bacterial resistance is a time-consuming effort associated with high-cost and commercial risks. Thus, modification, conjugation or combination of existing antibiotics to enhance their efficacy is a suitable strategy. […] Herein, we hypothesized that conjugation or combination of the amphiphilic cyclic peptide [R4W4] with levoflox ... || Antimicrobial peptides (AMPs) are vital parts of the innate immune system, which usually act at the level of the plasma membrane of the bacterial cell. AMPs have a unique mode of action, which is mostly related to their cationic and amphipathic properties, making them capable of interacting with microbial membranes. Accordingly, AMPs have attracted increasing attention as potential candidates against resistant bacteria. […] T ...
# Escherichia coli = system: Escherichia coli; set-up: method as in PMID 25157458; conditions: previously reported; cited from earlier work
# [4] = broth microdilution, Mueller Hinton media, 2-fold dilutions, 37 °C overnight, no visible growth, triplicate, N/A = not active
# [5] = Clinical strain (levofloxacin-susceptible)
# [6] = broth microdilution, Mueller Hinton media, 2-fold dilutions, 37 °C overnight, no visible growth, triplicate, N/A = not active, listed as levofloxacin-Q
structure (smiles),measurement,setting,value
C[C@H]1COc2c(F)c(F)cc3c(=O)c(C(=O)NCCC(=O)NCCCC[C@@H]4NC(=O)[C@H](Cc5c[nH]c6ccccc56)NC(=O)[C@H](Cc5c[nH]c6ccccc56)NC(=O)[C@H](Cc5c[nH]c6ccccc56)NC(=O)[C@H](Cc5c[nH]c6ccccc56)NC(=O)[C@H](CCCNC(=N)N)NC(=O)[C@H](CCCNC(=N)N)NC(=O)[C@H](CCCNC(=N)N)NC(=O)[C@H](CCCNC(=N)N)NC4=O)cn1c23 (cyclo(K([βAla-X1])RRRRWWWW)),"MIC, Klebsiella pneumoniae",[1]; [4],32 µg/mL
same,"MIC, Methicillin-Resistant Staphylococcus aureus (MRSA)",[2]; [4],8 µg/mL
C[C@H]1COc2c(N3CCN(C)CC3)c(F)cc3c(=O)c(C(=O)NCCC(=O)NCCCC[C@@H]4NC(=O)[C@H](Cc5c[nH]c6ccccc56)NC(=O)[C@H](Cc5c[nH]c6ccccc56)NC(=O)[C@H](Cc5c[nH]c6ccccc56)NC(=O)[C@H](Cc5c[nH]c6ccccc56)NC(=O)[C@H](CCCNC(=N)N)NC(=O)[C@H](CCCNC(=N)N)NC(=O)[C@H](CCCNC(=N)N)NC(=O)[C@H](CCCNC(=N)N)NC4=O)cn1c23 [Conjugate cyclic [R4W4]-levofloxacin (8)] (cyclo(K([βAla-Levofloxacinoyl])RRRRWWWW)),"MIC, Methicillin-Resistant Staphylococcus aureus (MRSA)",[2]; [4],32 µg/mL
C[C@H]1COc2c(N3CCN(C)CC3)c(F)cc3c(=O)c(C(=O)NCCC(=O)NCCCC[C@H](N)C(=O)N[C@@H](CCCNC(=N)N)C(=O)N[C@@H](CCCNC(=N)N)C(=O)N[C@@H](CCCNC(=N)N)C(=O)N[C@@H](CCCNC(=N)N)C(=O)N[C@@H](Cc4c[nH]c5ccccc45)C(=O)N[C@@H](Cc4c[nH]c5ccccc45)C(=O)N[C@@H](Cc4c[nH]c5ccccc45)C(=O)N[C@@H](Cc4c[nH]c5ccccc45)C(=O)O)cn1c23 [Conjugate linear (R4W4)-levofloxacin (6)] (H-K([βAla-Levofloxacinoyl])RRRRWWWW-OH),"MIC, Klebsiella pneumoniae",[1]; [5],>128 µg/mL
same,"MIC, Methicillin-Resistant Staphylococcus aureus (MRSA)",[2]; [4],64 µg/mL
"C[C@H]1COc2c(N3CCN(C)CC3)c(F)cc3c(=O)c(C(=O)O)cn1c23 [Levofloxacin (1), Levofloxacin]",MIC,[1]; [4],4 µg/mL
same,"MIC, Klebsiella pneumoniae",[1]; [4],4 µg/mL
same,MIC,[2]; [4],2 µg/mL
same,"MIC, Methicillin-Resistant Staphylococcus aureus (MRSA)",[2]; [4],2 µg/mL
"C[C@H]1COc2c(F)c(F)cc3c(=O)c(C(=O)O)cn1c23 [Levofloxacin-Q (2), Levofloxacin-Q acid]","MIC, Klebsiella pneumoniae",[1]; [4],>128 µg/mL
same,"MIC, Klebsiella pneumoniae",[1]; [6],> 128 µg/mL
same,"MIC, Methicillin-Resistant Staphylococcus aureus (MRSA)",[2]; [4],>128 µg/mL
same,"MIC, Methicillin-Resistant Staphylococcus aureus (MRSA)",[2]; [6],> 128 µg/mL
C[C@@H](O)[C@H]1C(=O)N2C(C(=O)O)=C(S[C@@H]3CN[C@H](C(=O)N(C)C)C3)[C@H](C)[C@H]12 [Meropenem],MIC,[1]; [4],1 µg/mL
CN[C@H](CC(C)C)C(=O)N[C@H]1C(=O)N[C@@H](CC(N)=O)C(=O)N[C@H]2C(=O)N[C@H]3C(=O)N[C@H](C(=O)N[C@H](C(=O)O)c4cc(O)cc(O)c4-c4cc3ccc4O)[C@H](O)c3ccc(c(Cl)c3)Oc3cc2cc(c3O[C@@H]2O[C@H](CO)[C@@H](O)[C@H](O)[C@H]2O[C@H]2C[C@](C)(N)[C@H](O)[C@H](C)O2)Oc2ccc(cc2Cl)[C@H]1O [Vancomycin],MIC,[2],1 µg/mL
N=C(N)NCCC[C@@H]1NC(=O)[C@H](CCCNC(=N)N)NC(=O)[C@H](CCCNC(=N)N)NC(=O)[C@H](Cc2c[nH]c3ccccc23)NC(=O)[C@H](Cc2c[nH]c3ccccc23)NC(=O)[C@H](Cc2c[nH]c3ccccc23)NC(=O)[C@H](Cc2c[nH]c3ccccc23)NC(=O)[C@H](CCCNC(=N)N)NC1=O [[R4W4] (3)] (cyclo(RRRRWWWW)),"MIC, Klebsiella pneumoniae",[1]; [5],16 µg/mL
same,"MIC, Methicillin-Resistant Staphylococcus aureus (MRSA)",[2]; Methicillin-Resistant (Los Angeles County (LAC) clone),4 µg/mL
same,MIC against MRSA,[3],2.97 µg/mL
CN(C)[C@@H]1C(O)=C(C(N)=O)C(=O)[C@@]2(O)C(O)=C3C(=O)c4c(O)cccc4[C@@](C)(O)[C@H]3C[C@@H]12 [tetracycline],MIC against MRSA,[3],0.5 µg/mL
same,MIC against Escherichia coli,Escherichia coli,2 µg/mL
